{"source": "paper PMC10054240", "about": "“New Inhibitors of Respiratory Syncytial Virus (RSV) Replication Based on Monoterpene-Substituted Arylcoumarins” (Molecules, 2023)", "key": {"[1]": {"assay": "Cytotoxicity on non-infected HEp-2 cells, MTT assay", "type": "cell-based", "conditions": "human, non-infected HEp-2 cells, CC50 (50% cytotoxic concentration), MTT, 24 h"}, "[2]": {"test_system": "RSV A strain A2", "assay": "Antiviral activity against RSV A strain A2 in HEp-2 cells (ELISA virus titer)", "type": "cell-based, respiratory syncytial virus", "conditions": "for IC50: HEp-2, RSV A, read-out: pIC50 (-lg[IC50]) (converted); for IC50 / pIC50 (-lg[IC50]): from Table 1 values; for pIC50 (-lg[IC50]): RSV A"}, "[3]": {"test_system": "RSV A2 virus", "assay": "Time-of-addition assay", "type": "cell-based, respiratory syncytial virus", "conditions": "300 μg/mL, RSV A2, titer by ELISA", "protocol": "Compounds 14e and 14b at a concentration of 300 μg/mL were added at different time intervals before, after, or during virus inoculation (Figure 2 and Figure 3). The time of compound addition was counted off from Point 0, i.e., the moment of virus entry into the cell. RSV A2 virus was added to cells at a time conventionally designated as […]; then, cells were kept at a temperature of 40 °C for 1 h. Next, at Point 0, unbound virus was washed off, fresh medium containing compounds at the same concentration was added, and the cells were transferred to a thermostat at 37 °C where they were incubated for 25 h. After this, medium collected from each well was used to make a series of ten-fold dilutions with fresh cell culture. The cells were incubated for 6 days. The viral titer was measured by ELISA.\nCompounds were added at different time points before, after, or simultaneously with the introduction of the virus. The time of addition of the compounds was counted from Point 0, i.e., the time of entry of the virus into the cell. During the period (−1)–0, the cells together with the virus were incubated at 40 °C. All other experiments were carried out at 37 °C. RSV virus A […] was added to the cells at a time that was conventionally designated as […], after which the cells were kept for an hour at a temperature of 40 °C. Then, at Point 0, the virus was unbound. […]"}, "[4]": {"test_system": "HEp-2 cells", "assay": "Cytotoxicity on non-infected HEp-2 cells, MTT assay", "type": "cell-based", "conditions": "read-out: CC50 (50% cytotoxic concentration), MTT, 24 h"}, "[5]": {"conditions": "human respiratory syncytial virus"}, "[6]": {"conditions": "human respiratory syncytial virus, HEp-2, read-out: EC50 (50% effective concentration)"}, "[7]": {"conditions": "read-out: EC50 (50% effective concentration)"}}, "note": "Where “and” joins values, the source holds several entries; their conditions need not be identical. Equal entries are not always repeated. Where two headings read alike, the source gives them in different places."}
{"molecule": "CC(C)=CCC/C(C)=C/COc1ccc2c(-c3ccccc3)cc(=O)oc2c1", "note": "[Compound 14a]", "values": [{"measurement": "CC50 at 24 h", "setting": "[1]", "result": "805 ± 97.6", "unit": "µM"}, {"measurement": "antiviral activity against RSV A (in words)", "setting": "[2]", "result": "moderate antiviral activity"}, {"measurement": "IC50", "setting": "[2]; [5]", "result": 67.6, "unit": "µM"}, {"measurement": "EC50", "setting": "[2]; [6]", "result": "67.3 ± 9.1", "unit": "µM"}]}
{"molecule": "CC1(C)C2CC=C(COc3ccc4c(-c5ccccc5)cc(=O)oc4c3)C1C2", "note": "(centres unmarked) [Compound 14b]", "values": [{"measurement": "CC50 at 24 h", "setting": "[1]", "result": "591 ± 85.2", "unit": "µM"}, {"measurement": "SI (selective index)", "setting": "[2]", "result": 32.8}, {"measurement": "pIC50 (-lg[IC50])", "setting": "[2]", "result": 4.75}, {"measurement": "EC50", "setting": "[2]; [7]", "result": "18 ± 0.9", "unit": "µM"}, {"measurement": "effect on viral titer depending on time of addition (in words)", "setting": "[3]", "result": "reduced the viral titer at all time periods, except for prophylactic use 2 h before virus entry into cells"}]}
{"molecule": "CC1(C)C2CC=C(COc3ccc4c(-c5ccccc5)cc(=O)oc4c3)C1C2", "note": "(centres unmarked) [Compound 14c]", "values": [{"measurement": "CC50", "setting": "[4]", "result": "813 ± 32.4", "unit": "µM"}, {"measurement": "SI (selective index)", "setting": "[2]", "result": 3.5}, {"measurement": "antiviral activity against RSV A (in words)", "setting": "[2]", "result": "not active"}, {"measurement": "pIC50 (-lg[IC50])", "setting": "[2]", "result": 3.63}, {"measurement": "EC50", "setting": "[2]; [7]", "result": "234 ± 27.1", "unit": "µM"}]}
{"molecule": "CC1(C)C2CC=C(CCOc3ccc4c(-c5ccccc5)cc(=O)oc4c3)C1C2", "note": "(centres unmarked) [Compound 14d]", "values": [{"measurement": "CC50 at 24 h", "setting": "[1]", "result": "657 ± 20.4", "unit": "µM"}, {"measurement": "SI (selective index)", "setting": "[2]", "result": 7.9}, {"measurement": "IC50", "setting": "[2]; [5]", "result": 83.2, "unit": "µM"}, {"measurement": "EC50", "setting": "[2]; [6]", "result": "82.5 ± 10.3", "unit": "µM"}]}
{"molecule": "CC1(C)[C@H]2CC=C(CCCCOc3ccc4c(-c5ccccc5)cc(=O)oc4c3)[C@@H]1C2", "note": "[Compound 14f, 7-(4-((1R,5S)-6,6-Dimethylbicyclo[3.1.1]hept-2-en-2-yl)butoxy)-4-phenyl-2H-chromen-2-one]", "values": [{"measurement": "CC50 at 24 h", "setting": "[1]", "result": "1270 ± 180", "unit": "µM"}, {"measurement": "SI (selective index)", "setting": "[2]", "result": 11.4}, {"measurement": "IC50", "setting": "[2]; [5]", "result": 112, "unit": "µM"}, {"measurement": "EC50", "setting": "[2]; [6]", "result": "111 ± 10.5", "unit": "µM"}]}
{"molecule": "CC(C)=CCC/C(C)=C/COc1ccc2c(-c3ccc(Br)cc3)cc(=O)oc2c1", "note": "[Compound 15a]", "values": [{"measurement": "CC50 at 24 h", "setting": "[1]", "result": "8.8 ± 0.5", "unit": "µM"}, {"measurement": "SI (selective index)", "setting": "[2]", "result": 1}, {"measurement": "IC50", "setting": "[2]; [5]", "result": 8.91, "unit": "µM"}, {"measurement": "EC50", "setting": "[2]; [6]", "result": "8.8 ± 0.7", "unit": "µM"}]}
{"molecule": "CC1(C)C2CC=C(COc3ccc4c(-c5ccc(Br)cc5)cc(=O)oc4c3)C1C2", "note": "(centres unmarked) [Compound 15b]", "values": [{"measurement": "CC50 at 24 h", "setting": "[1]", "result": "46.6 ± 8.6", "unit": "µM"}, {"measurement": "SI (selective index)", "setting": "[2]", "result": 3}, {"measurement": "pIC50 (-lg[IC50])", "setting": "[2]", "result": 4.82}, {"measurement": "EC50", "setting": "[2]; [7]", "result": "15.1 ± 1.1", "unit": "µM"}]}
{"molecule": "CC1(C)C2CC=C(COc3ccc4c(-c5ccc(Br)cc5)cc(=O)oc4c3)C1C2", "note": "(centres unmarked) [Compound 15c]", "values": [{"measurement": "CC50", "setting": "[4]", "result": "90.8 ± 11", "unit": "µM"}, {"measurement": "SI (selective index)", "setting": "[2]", "result": 1.9}, {"measurement": "pIC50 (-lg[IC50])", "setting": "[2]", "result": "4.31 and 4.30"}, {"measurement": "EC50", "setting": "[2]; [7]", "result": "48.7 ± 7.6", "unit": "µM"}]}
{"molecule": "CC1(C)C2CC=C(CCOc3ccc4c(-c5ccc(Br)cc5)cc(=O)oc4c3)C1C2", "note": "(centres unmarked) [Compound 15d]", "values": [{"measurement": "CC50 at 24 h", "setting": "[1]", "result": "17.2 ± 2.6", "unit": "µM"}, {"measurement": "SI (selective index)", "setting": "[2]", "result": "<0.8"}, {"measurement": "pIC50 (-lg[IC50])", "setting": "[2]", "result": 4.70}, {"measurement": "IC50", "setting": "[2]; [5]", "result": "> 20", "unit": "µM"}, {"measurement": "EC50", "setting": "[2]; [6]", "result": "> 20", "unit": "µM"}]}
{"molecule": "CC1(C)[C@H]2CC=C(CCCOc3ccc4c(-c5ccc(Br)cc5)cc(=O)oc4c3)[C@@H]1C2", "note": "[Compound 15e, 4-(4-Bromophenyl)-7-(3-((1R,5S)-6,6-dimethylbicyclo[3.1.1]hept-2-en-2-yl)propoxy)-2H-chromen-2-one]", "values": [{"measurement": "CC50 at 24 h", "setting": "[1]", "result": "12.5 ± 1.4", "unit": "µM"}, {"measurement": "SI (selective index)", "setting": "[2]", "result": "<1"}, {"measurement": "pIC50 (-lg[IC50])", "setting": "[2]", "result": 4.90}, {"measurement": "IC50", "setting": "[2]; [5]", "result": "> 12.6", "unit": "µM"}, {"measurement": "EC50", "setting": "[2]; [6]", "result": "> 12.5", "unit": "µM"}]}
{"molecule": "CC1(C)[C@H]2CC=C(CCCCOc3ccc4c(-c5ccc(Br)cc5)cc(=O)oc4c3)[C@@H]1C2", "note": "[Compound 15f, 4-(4-Bromophenyl)-7-(4-((1R,5S)-6,6-dimethylbicyclo[3.1.1]hept-2-en-2-yl)butoxy)-2H-chromen-2-one]", "values": [{"measurement": "CC50 at 24 h", "setting": "[1]", "result": "91.3 ± 9.2", "unit": "µM"}, {"measurement": "IC50", "setting": "[2]; [5]", "result": 9.55, "unit": "µM"}, {"measurement": "EC50", "setting": "[2]; [6]", "result": "9.5 ± 0.8", "unit": "µM"}]}
{"molecule": "O=c1cc(-c2ccc(Br)cc2)c2ccc(OCc3ccccc3)cc2o1", "note": "[Compound 15g]", "values": [{"measurement": "CC50 at 24 h", "setting": "[1]", "result": "265 ± 29.5", "unit": "µM"}, {"measurement": "SI (selective index)", "setting": "[2]", "result": 3.2}, {"measurement": "IC50", "setting": "[2]; [5]", "result": 83.2, "unit": "µM"}, {"measurement": "EC50", "setting": "[2]; [6]", "result": "84 ± 3", "unit": "µM"}]}
{"molecule": "CC(C)=CCC/C(C)=C/COc1ccc2c(-c3ccc(F)cc3)cc(=O)oc2c1", "note": "[Compound 16a]", "values": [{"measurement": "CC50 at 24 h", "setting": "[1]", "result": "273 ± 16", "unit": "µM"}, {"measurement": "SI (selective index)", "setting": "[2]", "result": 5.8}, {"measurement": "IC50", "setting": "[2]; [5]", "result": 47.9, "unit": "µM"}, {"measurement": "EC50", "setting": "[2]; [6]", "result": "47.4 ± 8", "unit": "µM"}]}
{"molecule": "CC1(C)C2CC=C(COc3ccc4c(-c5ccc(F)cc5)cc(=O)oc4c3)C1C2", "note": "(centres unmarked) [Compound 16b]", "values": [{"measurement": "CC50", "setting": "[4]", "result": "297 ± 8.5", "unit": "µM"}, {"measurement": "SI (selective index)", "setting": "[2]", "result": 2.9}, {"measurement": "pIC50 (-lg[IC50])", "setting": "[2]", "result": 3.99}, {"measurement": "EC50", "setting": "[2]; [7]", "result": "103 ± 7.1", "unit": "µM"}]}
